Source: PubChem BioAssay (NCI)
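Test compounds were applied to cells in 96-well plates for 48 hours at 5 doses. TGI denotes the concentration required for complete inhibition of growth.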

Assays:
Experiment in all cases: NCI tumour cell line growth inhibition, 48 h
RXF 393 renal = system: RXF 393 renal
BT-549 breast = system: BT-549 breast
A498 renal = system: A498 renal
RPMI-8226 leukemia = system: RPMI-8226 leukemia
LOX IMVI melanoma = system: LOX IMVI melanoma
UACC-257 melanoma = system: UACC-257 melanoma
PC-3 prostate = system: PC-3 prostate
CCRF-CEM leukemia = system: CCRF-CEM leukemia
DU-145 prostate = system: DU-145 prostate
NCI-H226 lung = system: NCI-H226 lung

Row | Structure (SMILES) | TGI (RXF 393 renal) | TGI (BT-549 breast) | TGI (A498 renal) | TGI (RPMI-8226 leukemia) | TGI (LOX IMVI melanoma) | TGI (UACC-257 melanoma) | TGI (PC-3 prostate) | TGI (CCRF-CEM leukemia) | TGI (DU-145 prostate) | TGI (NCI-H226 lung)
1 | CC(C)(C)c1cc(C(=O)/C=C/C=C/c2ccccc2)cc(C(C)(C)C)c1O | 15.1 µM | 57.2 µM | > 80.7 µM | 29.9 µM | 50.9 µM | 25.4 µM | > 79.9 µM | 15.5 µM | 98.1 µM | 77.2 µM
2 | Cc1ccc(-c2cc(-c3ccc(Cl)cc3)nc(/N=C3\C(=O)N(CN4CCOCC4)c4ccc(Cl)cc43)n2)cc1 | 26.9 µM | > 100 µM | 56.7 µM | > 100 µM | > 100 µM | > 100 µM | > 100 µM | > 100 µM | 47.7 µM | > 100 µM
3 | COc1cccc2c1C(=O)c1c(O)c3c(c(O)c1C2=O)C[C@@](O)(C(=O)CO)C[C@@H]3OC1CC(N)C(OC)C(C)O1 (some centres undefined) | 0.825 µM | 1.47 µM | 0.582 µM | 0.374 µM | 0.181 µM | 1.34 µM | 1.64 µM | 0.176 µM | > 100 µM | 0.47 µM
4 | CC(=O)Nc1ccc2cc(C)c(=O)[nH]c2n1 | > 100 µM | > 100 µM | > 100 µM | > 100 µM | – | > 100 µM | > 100 µM | > 100 µM | > 100 µM | –
5 | C[C@H]1C2Cc3cc(N)ccc3[C@@]1(C)CCN2CCc1ccccc1 | > 100 µM | > 100 µM | > 100 µM | > 100 µM | 41.2 µM | > 100 µM | 49.9 µM | > 100 µM | > 100 µM | > 100 µM
6 | CC1(C)OC2C(O)CN3CCS[C@H]3C2O1 (some centres undefined) | > 100 µM | > 100 µM | > 100 µM | > 100 µM | > 100 µM | > 100 µM | > 100 µM | > 100 µM | > 100 µM | > 100 µM
7 | NCCCNCCCCNCCCN | 28.3 µM | > 24.5 µM | > 100 µM | 1.59 µM | 30.5 µM | > 100 µM | > 100 µM | 5.72 µM | 23.2 µM | > 100 µM
8 | Cn1c(N)c2c3c(sc2nc1=O)CCCC3 | > 75 µM | > 75 µM | > 75 µM | > 75 µM | > 75 µM | > 75 µM | > 75 µM | – | > 75 µM | > 75 µM
9 | CC(/C=N\NC(=S)N1CCCCC1)=N/NC(=S)N1CCCCC1 | 4.28 µM | 13.4 µM | 3.59 µM | > 100 µM | > 100 µM | 15.4 µM | 11.9 µM | – | 4.58 µM | 2.6 µM
10 | S=c1[nH]n2c(COc3cccc(OCc4nnc5sc(=S)[nH]n45)c3)nnc2s1 | > 100 µM | > 100 µM | > 100 µM | > 100 µM | > 100 µM | > 100 µM | > 100 µM | > 100 µM | > 100 µM | > 100 µM
11 | O=C(O)CCN(CCC(=O)O)c1ccc(/C=C2\SC(=S)NC2=O)cc1 | > 100 µM | > 100 µM | > 100 µM | > 100 µM | > 100 µM | > 100 µM | > 100 µM | > 100 µM | > 100 µM | > 100 µM
12 | O=C(NS(=O)(=O)OCC(Cl)(Cl)Cl)SCCC(F)(F)C(F)(F)C(F)(F)C(F)(F)C(F)(F)C(F)(F)F | 44.6 µM | > 100 µM | 61.9 µM | 40.5 µM | 45.6 µM | > 100 µM | 32.4 µM | 44.5 µM | > 100 µM | 70.7 µM
13 | Cc1ccsc1/C=N/Nc1ccc2ccccc2n1 | 89.8 µM | > 100 µM | > 100 µM | > 100 µM | > 100 µM | 53.2 µM | > 100 µM | > 100 µM | > 100 µM | > 100 µM
14 | COc1ccc(C(OCC2OC(n3cc(C)c(=O)[nH]c3=O)CC2n2cc(Cn3cc(Br)c(=O)[nH]c3=O)nn2)(c2ccccc2)c2ccccc2)cc1 (centres undefined) | > 100 µM | > 100 µM | > 100 µM | > 100 µM | > 100 µM | > 100 µM | > 100 µM | > 100 µM | > 100 µM | > 100 µM
15 | Nc1nc2c(ncn2Cc2ccc(CO)cc2)c(=O)[nH]1 | > 100 µM | > 100 µM | > 100 µM | > 100 µM | > 100 µM | > 100 µM | > 100 µM | > 100 µM | > 100 µM | > 100 µM
16 | CCCCn1c(C)c2c(c1C)C(=O)N(CC(O)CN1CCc3ccccc3C1)C2=O (centres undefined) | > 100 µM | > 100 µM | > 100 µM | > 100 µM | > 100 µM | > 100 µM | > 100 µM | > 100 µM | > 100 µM | > 100 µM
17 | O=C(CCc1cc(O)cc(O)c1)NCCc1cc(O)cc(O)c1 | > 100 µM | > 100 µM | > 100 µM | > 100 µM | > 100 µM | > 100 µM | > 100 µM | – | > 100 µM | > 100 µM
18 | COc1ccc(OC)c(C2Cc3cnc4nc(N)nc(N)c4c3C2)c1 (centres undefined) | 43.2 µM | 52.6 µM | 33 µM | 94.7 µM | 47.6 µM | 40.1 µM | 69.7 µM | > 100 µM | 55.7 µM | –
